Tests used:
[1] = Comparison with 2-phenyl-indole, vinyl chloride-vinylidene chloride co-polymer, 210° C.; conditions: 0.3 part
Method: A second test was made using the following compound:
The sheets were heated in a ventilated oven at 210° C. and the following results were obtained: […]

[2] = Comparison with stabilizer G1, 0.1 part, 185° C.
Method: A test was also carried out with the following compound:
Another test was made with the same resin but containing 0.1 part of stabilizer.

[3] = Photostabilizing power, PVC plates exposed to the sun, GARDNER scale
Method: The photostabilizing power of the compounds of the invention was studied by exposing to the sun polyvinyl chloride plates which had been stabilized either by a dihydropyridine of the invention or by 2-phenyl-indole, or again by 2-(3'-methoxy-4'-hydroxy)-indole. This last product is an extremely valuable thermostabilizer for thermoplastic resins and is described in British Pat. No. 1,489,685.
The resin given hereunder was prepared by mixing on cylinders at 160° C.:
The plates of stabilized polyvinyl chloride, together with a plate which had not been stabilized, were stood in the sun under the same conditions and at the same time. Their colour was measured after 6 hours and 12 hours of exposure.
The coloration of the plates was determined according to two methods:
On the plates themselves, following the GARDNER scale, as in the section on thermostability,
The sign + means that the coloration lies between the lower unit and the upper half-unit. Thus, 3+ means that the coloration lies between 3 and 3.5. Similarly, the sign - means that the coloration lies between the lower half-unit and the upper unit.

[4] = Thermostability, flexible co-polymer (b), Metrastat oven 160° C.; conditions: 0.2 part
Method: (§1) The study of the static thermostability of vinyl co-polymers was carried out according to the GARDNER method described above and, also in a more detailed manner in British Patent No. 1,489,685.
(b) Flexible co-polymer vinyl chloride-vinyl acetate.
(§2) The following compound was prepared:
The resin was allowed to gel for 5 minutes at 120° C. and the sheets were heated at 160° C. in a Metrastat oven.

[5] = Thermostability, flexible co-polymer (c), Metrastat oven 160° C.; conditions: 0.3 part
Method: as §1
(c) Flexible co-polymer vinyl chloride-vinyl acetate
as §2
The sheets were heated in a Metrastat oven at 160° C. and the following results were obtained: […]

[6] = Polarographic study of the oxidation potential; format: physicochemical; conditions: acetonitrile, 0.1 M lithium perchlorate, vitrous carbon electrode, calomel reference
Procedure, shortened: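 Oxidation potential by polarography on a rotating vitreous carbon electrode (2,500 r.p.m.) with calomel reference and platinum counter electrode, in 0.1 M lithium perchlorate in dry acetonitrile. Scan 0 to 2 V at 10 mV/second; compounds at about 0.3×10^-3 mol/liter.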

[7] = Photostabilizing power, sheets exposed to the sun, co-polymer (a)
Method: (§3) The sheets were exposed to the sun and their colorations were also determined according to the GARDNER method.

[8] = Static thermostability (GARDNER method), rigid PVC sheets, 185° C., 0.3 part stabilizer
Procedure, shortened: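 Rigid PVC sheets, calendered at 160° C with 0.3 part stabilizer and usual additives, were heated at 185° C. Samples came out every 6 min to 24 min, then every 3 min up to 42 min or carbonization, and colour was scored on the GARDNER scale.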

[9] = Static thermostability (GARDNER method), rigid PVC sheets, 210° C., 0.3 part stabilizer; conditions: for coloration of the resins, in words: 0 to 3 minutes
Procedure, shortened: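 Rigid sheets calendered at 160° C. from powdered PVC resin with 0.3 part by weight stabilizer (dihydropyridine or 2-phenyl-indole reference) plus usual ingredients. Sheets heated in oven at 210° C., removed every three minutes over 21 minutes until incipient carbonization. Coloration scored against GARDNER scale reference figures.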

[10] = Photostabilizing power, sheets exposed to the sun, rigid co-polymer (b)
Method: as §3

[11] = Static thermostability (GARDNER method), rigid PVC sheets, 185° C., equimolecular quantities; conditions: 1.55×10^-3 mol
Procedure, shortened: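 Stabilizer at 1.55×10^-3 mol (equimolar with 2-phenyl-indole) mixed with PVC and other usual ingredients, calendered at 160° C. into rigid sheets. Sheets oven-aged at 185° C., sampled every 6 min to 24 min, then every 3 min to 42 min or carbonization. Coloration scored on the GARDNER scale.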

C=CCOC(=O)C1=C(C)NC(C)=C(C(=O)OCC=C)C1 [Compound 1, 2,6-Dimethyl-3,5-dicarboallyloxy-1,4-dihydropyridine]
coloration, GARDNER scale ([1]; 0 min): 1 | coloration, GARDNER scale ([1]; 3 min): 1 | coloration, GARDNER scale ([1]; 6 min): 2 | coloration, GARDNER scale ([1]; 9 min): 4 | coloration, GARDNER scale ([1]; 12 min): 10 | coloration, GARDNER scale ([2]; 0 min): 1 | coloration, GARDNER scale ([2]; 2 min): 1 | coloration, GARDNER scale ([2]; 4 min): 2 | coloration, GARDNER scale ([2]; 6 min): 4 | coloration, GARDNER scale ([2]; 8 min): 8 | coloration, GARDNER scale ([2]; 10 min): 11 | coloration, GARDNER scale ([2]; 12 min): 12 | coloration, GARDNER scale ([2]; 14 min): 13 | Coloration of the plates GARDNER ([3]; exposure to sun 0): 1 | Coloration of the plates GARDNER ([3]; exposure to sun 6h): 1 | Coloration of the plates GARDNER ([3]; exposure to sun 12h): 1.5 | coloration, GARDNER scale ([4]; 0 min): 1 | coloration, GARDNER scale ([4]; 30 min): 2 | coloration, GARDNER scale ([4]; 40 min): 6 | coloration, GARDNER scale ([4]; 50 min): 12 | coloration, GARDNER scale ([4]; 60 min): 15 | coloration, GARDNER scale ([5]; 0 min): 1 | coloration, GARDNER scale ([5]; 10 min): 1 | coloration, GARDNER scale ([5]; 20 min): 2 | coloration, GARDNER scale ([5]; 30 min): 4 | coloration, GARDNER scale ([5]; 40 min): 5.5 | coloration, GARDNER scale ([5]; 50 min): 6 | coloration, GARDNER scale ([5]; 60 min): 7 | Oxidation potential [6]: 0.75 ± 0.01 volts | Colour in GARDNER degrees ([7]; After 24 hours): 1 GARDNER degrees | Colour in GARDNER degrees ([7]; Time 0): 1 GARDNER degrees | coloration, GARDNER scale ([8]; 0 min): 1 | coloration, GARDNER scale ([8]; 6 min): 1 | coloration, GARDNER scale ([8]; 12 min): 3 | coloration, GARDNER scale ([8]; 18 min): 3 | coloration, GARDNER scale ([8]; 24 min): 5 | coloration, GARDNER scale ([8]; 27 min): 7 | coloration, GARDNER scale ([8]; 30 min): 10 | coloration, GARDNER scale ([8]; 33 min): 10.5 | coloration, GARDNER scale ([8]; 36 min): 11 | coloration, GARDNER scale ([8]; 39 min): 16 | coloration, GARDNER scale ([8]; 42 min): Burnt | coloration, GARDNER scale ([9]; 0 min): 1 | coloration of the resins, in words [9]: considerably less | coloration, GARDNER scale ([9]; 3 min): 1 | thermostabilizing power compared to 2-phenyl-indole, in words ([9]; 210° C.): greatly superior to 2-phenyl-indole | coloration, GARDNER scale ([9]; 6 min): 2 | coloration, GARDNER scale ([9]; 9 min): 4 | coloration, GARDNER scale ([9]; 12 min): 7 | coloration, GARDNER scale ([9]; 15 min): Burnt | Colour in GARDNER degrees ([10]; After 24 hours): 2 GARDNER degrees | Colour in GARDNER degrees ([10]; Time 0): 1 GARDNER degrees

CC1=C(C(=O)OCc2ccccc2)CC(C(=O)OCc2ccccc2)=C(C)N1 [Compound 21, 2,6-Dimethyl-3,5-dicarbobenzyloxy-1,4-dihydropyridine]
coloration, GARDNER scale ([1]; 0 min): 1.5 | coloration, GARDNER scale ([1]; 3 min): 2 | coloration, GARDNER scale ([1]; 6 min): 2 | coloration, GARDNER scale ([1]; 9 min): 3 | coloration, GARDNER scale ([1]; 12 min): 7 | coloration, GARDNER scale ([1]; 15 min): 15 | coloration, GARDNER scale ([2]; 0 min): 1 | coloration, GARDNER scale ([2]; 2 min): 1 | coloration, GARDNER scale ([2]; 4 min): 2 | coloration, GARDNER scale ([2]; 6 min): 4 | coloration, GARDNER scale ([2]; 8 min): 11 | coloration, GARDNER scale ([2]; 10 min): 13 | coloration, GARDNER scale ([2]; 12 min): 17 | coloration, GARDNER scale ([11]; 0 min): 1 | coloration, GARDNER scale ([11]; 6 min): 1 | coloration, GARDNER scale ([11]; 12 min): 1 | coloration, GARDNER scale ([11]; 18 min): 4 | coloration, GARDNER scale ([11]; 24 min): 6 | coloration, GARDNER scale ([11]; 27 min): 8 | coloration, GARDNER scale ([11]; 30 min): 11 | coloration, GARDNER scale ([11]; 33 min): 15 | coloration, GARDNER scale ([11]; 36 min): Burnt | Coloration of the plates GARDNER ([3]; exposure to sun 0): 1 | Coloration of the plates GARDNER ([3]; exposure to sun 6h): 1 | Coloration of the plates GARDNER ([3]; exposure to sun 12h): 1.5 | coloration, GARDNER scale ([4]; 0 min): 1 | coloration, GARDNER scale ([4]; 30 min): 1 | coloration, GARDNER scale ([4]; 40 min): 3 | coloration, GARDNER scale ([4]; 50 min): 8 | coloration, GARDNER scale ([4]; 60 min): 15 | coloration, GARDNER scale ([5]; 0 min): 1 | coloration, GARDNER scale ([5]; 10 min): 1 | coloration, GARDNER scale ([5]; 20 min): 2 | coloration, GARDNER scale ([5]; 30 min): 5 | coloration, GARDNER scale ([5]; 40 min): 6 | coloration, GARDNER scale ([5]; 50 min): 7 | coloration, GARDNER scale ([5]; 60 min): 12 | Oxidation potential [6]: 0.73 ± 0.01 volts | Colour in GARDNER degrees ([7]; After 24 hours): 1 GARDNER degrees | Colour in GARDNER degrees ([7]; Time 0): 1 GARDNER degrees | coloration, GARDNER scale ([8]; 0 min): 1 | coloration, GARDNER scale ([8]; 6 min): 1 | coloration, GARDNER scale ([8]; 12 min): 2 | coloration, GARDNER scale ([8]; 18 min): 10 | coloration, GARDNER scale ([8]; 24 min): 12 | coloration, GARDNER scale ([8]; 27 min): 12 | coloration, GARDNER scale ([8]; 30 min): 13 | coloration, GARDNER scale ([8]; 33 min): 14 | coloration, GARDNER scale ([8]; 36 min): Burnt | coloration, GARDNER scale ([9]; 0 min): 1 | coloration of the resins, in words [9]: considerably less | coloration, GARDNER scale ([9]; 3 min): 1 | coloration, GARDNER scale ([9]; 6 min): 2 | coloration, GARDNER scale ([9]; 9 min): 3 | coloration, GARDNER scale ([9]; 12 min): 5.5 | coloration, GARDNER scale ([9]; 15 min): 14 | coloration, GARDNER scale ([9]; 18 min): Burnt | Colour in GARDNER degrees ([10]; After 24 hours): 3.5 GARDNER degrees | Colour in GARDNER degrees ([10]; Time 0): 1.5 GARDNER degrees

Reference: patent publication US4317768A, “Dihydropyridine derivatives as stabilizers for vinyl chloride polymers” (priority 1977, dated 1982)
